The nature of the series: Dissolution test, Paddle Method, CTAB-containing The Japanese Pharmacopoeia 2nd fluid. The class given is physicochemical. Particulars: after 10 min; control group; 0.1% CTAB-containing JP 2nd fluid 500 mL, 100 rpm. On the procedure:
To be specific, the tablets obtained in Examples 1-3 were subjected to a dissolution test (Paddle Method, 0.1% cetyltrimethylammoniumbromide (CTAB)-containing The Japanese Pharmacopoeia Degradation Test2nd fluid (hereinafter to be abbreviated as CTAB-containing The Japanese Pharmacopoeia Degradation Test 2nd fluid) 500 mL, number of rotation 100 rpm). In addition, as a control group, the powder of compound A was subjected to a similar dissolution test and found to show a dissolution rate of 99% after 10 min.
To be specific, a dissolution test of the tablet obtained in Example 13 was performed in the same manner as in Experimental Example 1. In addition, as a control group, the tablet of Reference Example 1 was subjected to a similar dissolution test and found to show a dissolution rate of 100% after 10 min.
To be specific, each tablet obtained in Examples 7 and 21 was subjected to a dissolution test (Paddle Method, The Japanese Pharmacopoeia Degradation Test 1st fluid (hereinafter to be abbreviated as The Japanese Pharmacopoeia 1st fluid) 500 mL, number of rotation 100 rpm). In addition, in the same manner as above except that the eluent was a CTAB-containing The Japanese Pharmacopoeia 2nd fluid, a dissolution test of the tablets obtained in Examples 7 and 21 was performed. The results are shown in Table 4 and Table 5, respectively.

`CC(C)Cn1c(CN)c(-c2ccccc2)c2cc(C(N)=O)ccc2c1=O` [Compound A, 3-(aminomethyl)-2-isobutyl-1-oxo-4-phenyl-1,2-dihydroisoquinoline-6-carboxamide] had a dissolution rate of 99%.

The values above are taken from patent US20060039974A1, “Sustained release preparation” (TAKEDA PHARMACEUTICAL COMPANY LIMITED, priority 2002, published 2006).
